Laboratory results: US8828988B2 (Tetraphase Pharmaceuticals, Inc., priority 2009, dated 2014)
≈ marks a conversion by molar mass, not a printed value. Like-named read-outs stand apart in the source and are kept apart here.

Tests used:
[1] = test system: E. coli S30 extract system, coupled in vitro transcription/translation, firefly luciferase readout; test: In vitro transcription/translation (TnT) assay; type: biochemical; settings: Table 8
[2] = Pharmacokinetic analysis in Sprague-Dawley rats; settings: IV, single dose 1 mg/kg, mean
[3] = test system: Escherichia coli EC155, tetracycline-resistant, tet(A); test: MIC assay, EC155; type: cell-based
[4] = test system: Streptococcus pneumoniae SP106, ATCC 49619; test: MIC assay, SP106; type: cell-based
[5] = test system: tet(K) strains of S. aureus; test: MIC, CLSI methodology, recent clinical isolates (Example 21); type: cell-based; settings: Staphylococcus aureus, read-out: MIC against tet(K) strains of S. aureus
Experimental: (§1) The assays were run as follows.
(§2) The antibacterial activities of Compounds MIC values were determined according to CLSI methodology. Recent clinical isolates were obtained from Eurofins-Medinet. Antibiotics were obtained from standard commercial sources.

[6] = test system: tet(M) and tet(S) strains of E. faecalis; test: as above; type: cell-based; settings: Enterococcus faecalis, read-out: MIC against tet(M) and tet(S) strains of E. faecalis
Experimental: as §1, §2

[7] = test system: tet(M) strains of S. pneumoniae; test: as above; type: cell-based; settings: Streptococcus pneumoniae, read-out: MIC against tet(M) strains of S. pneumoniae
Experimental: as §1, §2

[8] = test system: tet(M) strains of S. aureus; test: as above; type: cell-based; settings: Staphylococcus aureus, read-out: MIC against tet(M) strains of S. aureus
Experimental: as §1, §2

[9] = test system: H. influenzae isolates (Eurofins-Medinet, recent clinical isolates); test: MIC50 and MIC90 analysis (Example 22)
Experimental: (§4) Frozen bacterial strains were thawed and subcultured onto Mueller Hinton Broth (MHB) or other appropriate media (Streptococcus requires blood and Haemophilus requires hemin and NAD). Following incubation overnight, the strains were subcultured onto Mueller Hinton Agar and again incubated overnight. […] Isolated colonies were selected to prepare a starting inoculum equivalent to a 0.5 McFarland standard. […] Antibiotics (stored frozen, thawed and used within 3 hours of thawing) and compounds were further diluted to the desired working concentrations.
(§5) The assays were run as follows. Fifty μL of MHB was added to wells 2-12 of a 96-well plate. One hundred μL of appropriately diluted antibiotic or compound was added to well 1. Fifty μL of antibiotics or compound was removed from well 1 and added to well 2 and the contents of well 2 mixed by pipetting up and down five times. Fifty μL of the mixture in well 2 was removed and added to well 3 and mixed as above. Serial dilutions were continued in the same manner through well 12. Fifty μL was removed from well 12 so that all contained 50 μL. Fifty μL of the working inoculum was then added to all test wells. A growth control well was prepared by adding 50 μL of working inoculum and 50 μL of MHB to an empty well. The plates were then incubated at 37° C. overnight, removed from the incubator and each well was read on a plate reading mirror. The lowest concentration (MIC) of test compound that inhibited the growth of the bacteria was recorded.
(§6) MIC, MIC50 and MIC90 values were determined according to CLSI methodology. S. pneumoniae and H. influenzae isolates were obtained from Eurofins-Medinet and are recent clinical isolates. S. aureus strains were collected from various geographical sources.

in vivo = settings: Sprague-Dawley, rat
[10] = test system: Streptococcus pneumoniae SP160, tetracycline-resistant, tet(M); test: MIC assay, SP160; type: cell-based
[11] = test system: Staphylococcus aureus SA101, ATCC 29213, MSSA; test: MIC assay, SA101; type: cell-based
[12] = test system: S. pneumoniae isolates (Eurofins-Medinet, recent clinical isolates); test: MIC50 and MIC90 analysis (Example 22)
Experimental: as §4, §5, §6

[13] = test system: S. aureus strains collected from various geographical sources; test: MIC50 and MIC90 analysis (Example 22)
Experimental: as §4, §5, §6

[14] = test system: S. aureus ATCC 13709 (Smith); test: Mouse systemic infection model, S. aureus septicemia; settings: survival after 48 hours
[15] = test system: E. faecalis clinical isolates; test: MIC50, MIC90 and MIC range, panel of clinical isolates (Example 20); type: cell-based; settings: 24 isolates, in µg/mL
Experimental: as §1
(§3) Both values, as well as the MIC range (the lowest and highest MIC value observed for a collection of organisms), were determined for the isolates listed in Table 3.

[16] = test system: S. pneumoniae clinical isolates; test: as above; type: cell-based; settings: 19 isolates, in µg/mL
Experimental: as §1, §3

[17] = test system: S. aureus clinical isolates; test: as above; type: cell-based; settings: MRSA, 30 isolates; in µg/mL
Experimental: as §1, §3

[18] = test system: Pseudomonas aeruginosa PA111, ATCC 27853; test: MIC assay, PA111; type: cell-based; settings: ATCC27853, Table 9, read-out: MIC P. aeruginosa ATCC 27853
[19] = test system: Enterococcus faecalis EF159, tetracycline-resistant, tet(M); test: MIC assay, EF159; type: cell-based
E. coli ATCC 25922 = test: Mouse systemic infection model, E. coli septicemia; settings: survival after 48 hours
[20] = test system: Enterobacter cloacae EC108, ATCC 13047; test: MIC assay, EC108; type: cell-based; settings: ATCC13047, Table 9, read-out: MIC Enterobacter cloaceae ATCC 13047
[21] = test system: Staphylococcus aureus SA158, tetracycline-resistant tet(K); test: MIC assay, SA158; type: cell-based
[22] = test system: E. coli DH10B(pBAD-tetM), expressing tet(M); test: MIC against recombinant E. coli expressing tet(M); type: cell-based; settings: for MIC: Escherichia coli
Text: Constructs were transformed into E. coli DH10B for expression. Recombinant strains were pre-induced under optimized conditions with L-arabinose prior to use as inocula in CLSI standardized MIC assays.

[23] = test system: Escherichia coli EC107, ATCC 25922; test: MIC assay, EC107; type: cell-based
[24] = test system: Klebsiella pneumoniae KP109, ATCC 13883; test: MIC assay, KP109; type: cell-based; settings: ATCC13883, Table 9, read-out: MIC Klebsiella pneum ATCC 13883

Question: For `CN(C)CC(C)(C)CNc1nc(Cl)c2c(c1O)C(=O)C1=C(O)[C@]3(O)C(=O)C(C(N)=O)=C(O)[C@@H](N(C)C)[C@@H]3C[C@@H]1C2` [Compound 151], which “E. coli TnT” value [1] is on record?
Answer: 0.7 µg/mL

Question: What about the Clobs [2] of the same molecule?
Answer: 3.3723 mL/min/kg

Question: And the Vzobs [2]?
Answer: 1.25614 L/kg

Question: What about the half-life [2] of the same molecule?
Answer: 258 min

Question: And the MIC ([3]; Table 8, read-out: MIC E. coli tetA)?
Answer: 8 µg/mL (≈ 13.8 µM)

Question: What about the MIC ([3]; Table 9, read-out: MIC E. coli EC155 (tet)A) of the same molecule?
Answer: 8 µg/mL (≈ 13.8 µM)

Question: And the MIC ([4]; ATCC49619, Table 8, read-out: MIC S. pneumoniae ATCC 49619)?
Answer: 0.063 µg/mL (≈ 0.109 µM)

Question: And the MIC ([4]; ATCC49619, Table 9, read-out: MIC S. pneum ATCC 49619)?
Answer: 0.016 µg/mL (≈ 0.0277 µM)

Question: And the MIC [5]?
Answer: ≤ 1 µg/mL

Question: What about the MIC [6] of the same molecule?
Answer: ≤ 4 µg/mL

Question: And the MIC [7]?
Answer: ≤ 0.25 µg/mL

Question: What about the MIC [8] of the same molecule?
Answer: ≤ 8 µg/mL

Question: And the MIC Range ([9]; H. influenzae (n = 12))?
Answer: 0.25 to 2 µg/mL

Question: What about the MIC50 ([9]; Haemophilus influenzae) of the same molecule?
Answer: 1 µg/mL (≈ 1.73 µM)

Question: What about the MIC90 ([9]; Haemophilus influenzae) of the same molecule?
Answer: 1 µg/mL (≈ 1.73 µM)

Question: What about the AUC(0-t) (in vivo; iv, 1 mg/kg) of the same molecule?
Answer: 4870 ng·h/mL

Question: What about the Cmax (in vivo; iv, 1 mg/kg) of the same molecule?
Answer: 2400 ng/mL

Question: What about the Tmax (in vivo; iv, 1 mg/kg) of the same molecule?
Answer: 13.2 min

Question: And the bioavailability (in vivo; oral, 10 mg/kg)?
Answer: 0.8%

Question: And the AUC(0-t) (in vivo; po, 10 mg/kg)?
Answer: 395 ng·h/mL

Question: What about the Cmax (in vivo; po, 10 mg/kg) of the same molecule?
Answer: 69.8 ng/mL

Question: And the Tmax (in vivo; po, 10 mg/kg)?
Answer: 49.8 min

Question: And the half-life (in vivo; po, 10 mg/kg)?
Answer: 313 min

Question: And the MIC ([10]; Table 8, read-out: MIC S. pneumoniae tetM)?
Answer: 0.5 µg/mL (≈ 0.865 µM)

Question: What about the MIC ([10]; Table 9, read-out: MIC S. pneum SP160 (tet)M) of the same molecule?
Answer: 0.125 µg/mL (≈ 0.216 µM)

Question: And the MIC ([11]; Table 8, read-out: MIC S. aureus ATCC 29213)?
Answer: 0.25 µg/mL (≈ 0.432 µM)

Question: What about the MIC ([11]; Table 9, read-out: MIC S. aureus ATCC 29213) of the same molecule?
Answer: 0.25 µg/mL (≈ 0.432 µM)

Question: And the MIC Range ([12]; S. pneumoniae (n = 20))?
Answer: ≦0.016-0.063 μg/ml

Question: What about the MIC50 ([12]; Streptococcus pneumoniae) of the same molecule?
Answer: ≤ 0.016 µg/mL

Question: And the MIC90 ([12]; Streptococcus pneumoniae)?
Answer: 0.063 µg/mL (≈ 0.109 µM)

Question: What about the MIC Range ([13]; S. aureus (n = 20)) of the same molecule?
Answer: 0.063 to 0.5 µg/mL

Question: What about the MIC50 ([13]; Staphylococcus aureus) of the same molecule?
Answer: 0.13 µg/mL (≈ 0.225 µM)

Question: What about the MIC90 ([13]; Staphylococcus aureus) of the same molecule?
Answer: 0.25 µg/mL (≈ 0.432 µM)

Question: What about the “PD50 in the mouse septicemia model against S. aureus” value ([14]; CD-1 mice, IP infection, intravenous treatment one hour post-challenge) of the same molecule?
Answer: 0.36 mg/kg

Question: And the PD50 ([14]; mouse septicemia, S. aureus ATCC 13709, intravenous treatment one hour post-challenge)?
Answer: 0.36 mg/kg

Question: And the “MIC Range” value [15]?
Answer: 0.031-4

Question: What about the “MIC Range” value [16] of the same molecule?
Answer: <=0.016-0.25

Question: What about the “MIC Range” value [17] of the same molecule?
Answer: 0.5-8

Question: And the MIC [18]?
Answer: 32 µg/mL (≈ 55.4 µM)

Question: What about the MIC ([19]; Table 8, read-out: MIC E. faecalis tetM) of the same molecule?
Answer: 2 µg/mL (≈ 3.46 µM)

Question: What about the MIC ([19]; Table 9, read-out: MIC E. faecalis EF159 (tet)M) of the same molecule?
Answer: 2 µg/mL (≈ 3.46 µM)

Question: And the “PD50 in the mouse septicemia model against E. coli” value (E. coli ATCC 25922; CD-1 mice, IP infection, treatment one hour post-challenge)?
Answer: 17.0 mg/kg

Question: What about the PD50 (E. coli ATCC 25922; mouse septicemia, E. coli ATCC 25922, treatment one hour post-challenge) of the same molecule?
Answer: 17.0 mg/kg

Question: And the MIC [20]?
Answer: 2 µg/mL (≈ 3.46 µM)

Question: What about the MIC ([21]; Table 8, read-out: MIC S. aureus tetK) of the same molecule?
Answer: 0.13 µg/mL (≈ 0.225 µM)

Question: And the MIC ([21]; Table 9, read-out: MIC S. aureus SA158 (tet)K)?
Answer: 0.125 µg/mL (≈ 0.216 µM)

Question: And the MIC ([22]; read-out: MIC, TetM induced)?
Answer: 1 µg/mL

Question: And the MIC ([22]; read-out: MIC, Uninduced)?
Answer: 0.5 µg/mL

Question: What about the “Ratio (TetM induced / Uninduced)” value ([22]; ratio of MICs) of the same molecule?
Answer: 2

Question: And the “Effect of expression of (tet)M on activity” value ([22]; result in words)?
Answer: minimally affected

Question: What about the MIC ([23]; ATCC25922, Table 8, read-out: MIC E. coli ATCC 25922) of the same molecule?
Answer: 0.5 µg/mL (≈ 0.865 µM)

Question: What about the MIC ([23]; ATCC25922, Table 9, read-out: MIC E. coli ATCC 25922) of the same molecule?
Answer: 0.5 µg/mL (≈ 0.865 µM)

Question: And the MIC ([23]; ATCC25922, Table 12, read-out: MIC E. coli ATCC 25922)?
Answer: 0.25 µg/mL (≈ 0.432 µM)

Question: And the MIC [24]?
Answer: 2 µg/mL (≈ 3.46 µM)
